We go through 45 compounds from ChEMBL document CHEMBL2331510, “Antimycobacterial activity evaluation, time-kill kinetic and 3D-QSAR study of C-(3-aminomethyl-cyclohexyl)-methylamine derivatives” (Bioorg Med Chem Lett, 2013).

Molecules are shown by their SMILES. ≈ marks a conversion by molar mass, not a printed value. Calls of active or inactive are those of the source. No cut-off for these calls is given here.

Test system in one data set: not listed separately
As to the kind of experiment: Cytotoxicity against human RBC up to 500 ug/ml. The class given is cell-based. The note with it: erythrocyte.
With `CC(C)(C)c1ccc(CNCC2CCCC(CNCc3ccc(C(C)(C)C)cc3)C2)cc1.Cl.Cl` (centres undefined), the Activity entry is recorded as “Non-toxic”. Same read-out and setting: then `CCCCc1ccc(CNCC2CCCC(CNCc3ccc(CCCC)cc3)C2)cc1.Cl.Cl` (centres undefined), with “Non-toxic”.

The test system of the next data set is Mycobacterium tuberculosis. Description: Bactericidal activity against Mycobacterium tuberculosis H37Rv assessed as reduction in CFU at 10 times MIC by serial dilution-based time kill assay relative to control. The class given is functional, organism-based. The note with it: TDE = time-dependent effect.
Consider `CC(C)(C)c1ccc(CNCC2CCCC(CNCc3ccc(C(C)(C)C)cc3)C2)cc1.Cl.Cl` (centres undefined), for which the Activity result is “tde”.

The next data set deals with Mycobacterium tuberculosis. Description: Bactericidal activity against Mycobacterium tuberculosis H37Rv assessed as reduction in CFU over 4 days by serial dilution-based time kill assay relative to control. It counts as functional.
Details: not given
Regarding `CC(C)(C)c1ccc(CNCC2CCCC(CNCc3ccc(C(C)(C)C)cc3)C2)cc1.Cl.Cl` (centres undefined), the Activity result is “Dose-dependent effect”.

Still in this data set, the particulars now being: 96 h.
For orientation: MBC means the lowest tested concentration that kills the bacteria rather than only halting them. For the compound `CC(C)(C)c1ccc(CNCC2CCCC(CNCc3ccc(C(C)(C)C)cc3)C2)cc1.Cl.Cl` (centres undefined), the MBC was 4.5 µM.

Another data set deals with Mycobacterium tuberculosis. Description: Bactericidal activity against Mycobacterium tuberculosis H37Rv assessed as reduction in CFU at 10 times MIC after 4 days by serial dilution-based time kill assay relative to control. It counts as functional, organism-based.
Details: not given
As for `CC(C)(C)c1ccc(CNCC2CCCC(CNCc3ccc(C(C)(C)C)cc3)C2)cc1.Cl.Cl` (centres undefined), the result was Active.

For `CCCCc1ccc(CNCC2CCCC(CNCc3ccc(CCCC)cc3)C2)cc1.Cl.Cl` (centres undefined), the outcome was Active.

Another data set relates to Mycobacterium tuberculosis. Description: Bactericidal activity against Mycobacterium tuberculosis H37Rv assessed as log reduction in CFU at 10 times MIC over 2 days by serial dilution-based time kill assay relative to control. The class given is functional.
Details: not given
`CC(C)(C)c1ccc(CNCC2CCCC(CNCc3ccc(C(C)(C)C)cc3)C2)cc1.Cl.Cl` (centres undefined): the FC is reported as 5. The same measure, in the same setting: then `CCCCc1ccc(CNCC2CCCC(CNCc3ccc(CCCC)cc3)C2)cc1.Cl.Cl` (centres undefined), with 5.

The next data set has as its system Mycobacterium tuberculosis. As to the kind of experiment: Antitubercular activity against Mycobacterium tuberculosis H37Rv at 20 uM after 5 days by fluorescence assay. The class given is functional, organism-based.
Details: not given
Take `CN1CCN(c2ccc(CNCC3CCCC(CNCc4ccc(N5CCN(C)CC5)cc4)C3)cc2)CC1` (centres undefined): the inhibition entry was “inactive”. On the same count and under the same terms, next, `Fc1cc(F)cc(CNCC2CCCC(CNCc3cc(F)cc(F)c3)C2)c1` (centres undefined): “inactive”.

As for `O=[N+]([O-])c1ccc(CNCC2CCCC(CNCc3ccc([N+](=O)[O-])cc3)C2)cc1` (centres undefined), the inhibition result was “inactive”. For the compound `O=[N+]([O-])c1cccc(CNCC2CCCC(CNCc3cccc([N+](=O)[O-])c3)C2)c1` (centres undefined), the inhibition result was “inactive”. `Fc1cccc(CNCC2CCCC(CNCc3cccc(F)c3)C2)c1` (centres undefined): the inhibition entry is “inactive”.

On to `Fc1cccc(F)c1CNCC1CCCC(CNCc2c(F)cccc2F)C1` (centres undefined), for which the inhibition entry is “inactive”. Regarding `FC(F)(F)c1ccccc1CNCC1CCCC(CNCc2ccccc2C(F)(F)F)C1` (centres undefined), the inhibition result was “inactive”. The same measure, in the same setting: next, `COc1ccc(CNCC2CCCC(CNCc3ccc(OC)cc3)C2)cc1` (centres undefined): “inactive”; `Fc1ccc(CNCC2CCCC(CNCc3ccc(F)cc3)C2)cc1` (centres undefined): “inactive”. For `Clc1cccc(Cl)c1CNCC1CCCC(CNCc2c(Cl)cccc2Cl)C1` (centres undefined), the inhibition result was “inactive”.

On to `Fc1ccccc1CNCC1CCCC(CNCc2ccccc2F)C1` (centres undefined), for which the inhibition result is “inactive”. On the same count and under the same terms, next, `c1ccc(CNCC2CCCC(CNCc3ccccc3)C2)cc1` (centres undefined): “inactive”; `Clc1ccccc1CNCC1CCCC(CNCc2ccccc2Cl)C1` (centres undefined): “inactive”. Still for that read-out and setting: next, `Cc1ccccc1CNCC1CCCC(CNCc2ccccc2C)C1` (centres undefined): “inactive”.

Take `O=[N+]([O-])c1ccccc1CNCC1CCCC(CNCc2ccccc2[N+](=O)[O-])C1` (centres undefined): the inhibition result is “inactive”.

The subject of a further data set is Mycobacterium tuberculosis. Description: Antitubercular activity against Mycobacterium tuberculosis H37Rv after 5 days by fluorescence assay. It counts as functional. The note with it: 120 h.
Usually MIC stands for the least concentration at which growth counts as inhibited. The low end stands for inhibition by little substance, the high end for a need for much substance. The compound `Clc1ccc(CNCC2CCCC(CNCc3ccc(Cl)cc3)C2)cc1` (centres undefined) returned an MIC of 17.5 µM (≈ 6.85 µg/mL). That is a double-digit micromolar value. Same read-out and setting: next, `Cc1cc(C)cc(CNCC2CCCC(CNCc3cc(C)cc(C)c3)C2)c1` (centres undefined): 17.5 µM (≈ 6.63 µg/mL). The compound `c1cc(N2CCCCC2)ccc1CNCC1CCCC(CNCc2ccc(N3CCCCC3)cc2)C1` (centres undefined) yielded an MIC of 13.8 µM (≈ 6.74 µg/mL). The same measure, in the same setting: next, `Cc1ccc(CNCC2CCCC(CNCc3ccc(C)cc3)C2)cc1` (centres undefined): > 20 µM. On the same count and under the same terms, next, `Clc1cccc(CNCC2CCCC(CNCc3cccc(Cl)c3)C2)c1` (centres undefined): > 20 µM.

Compound `CC(C)(C)c1ccc(CNCC2CCCC(CNCc3ccc(C(C)(C)C)cc3)C2)cc1.Cl.Cl` (centres undefined) had an MIC of 1.1 µM. On the same count and under the same terms, then `Brc1ccc(CNCC2CCCC(CNCc3ccc(Br)cc3)C2)cc1` (centres undefined), with 12.2 µM (≈ 5.86 µg/mL); and `Cc1ccc(C)c(CNCC2CCCC(CNCc3cc(C)ccc3C)C2)c1` (centres undefined), with > 20 µM. `c1ccc(N2CCN(c3ccc(CNCC4CCCC(CNCc5ccc(N6CCN(c7ccccc7)CC6)cc5)C4)cc3)CC2)cc1` (centres undefined) displayed an MIC of 4.4 µM (≈ 2.83 µg/mL). This counts as single-digit micromolar. Same read-out and setting: next, `CC(C)c1ccc(CNCC2CCCC(CNCc3ccc(C(C)C)cc3)C2)cc1` (centres undefined): 4.4 µM (≈ 1.79 µg/mL); `Cc1ccc(CNCC2CCCC(CNCc3ccc(C)cc3C)C2)c(C)c1` (centres undefined): > 20 µM; `CCCCCCCc1ccccc1CNCC1CCCC(CNCc2ccccc2CCCCCCC)C1` (centres undefined): 20 µM (≈ 10.4 µg/mL). Consider `CCCc1ccc(CNCC2CCCC(CNCc3ccc(CCC)cc3)C2)cc1` (centres undefined), for which the MIC came out at 4.2 µM (≈ 1.71 µg/mL).

`CCCCCCc1ccc(CNCC2CCCC(CNCc3ccc(CCCCCC)cc3)C2)cc1` (centres undefined) came in with an MIC of 5.6 µM (≈ 2.75 µg/mL). The MIC values of the last two compounds are within 1.5-fold of each other. Compound `CCCCCCCc1ccc(CNCC2CCCC(CNCc3ccc(CCCCCCC)cc3)C2)cc1` (centres undefined) came in with an MIC of 3.1 µM (≈ 1.61 µg/mL). Consider `FC(F)(F)c1ccc(CNCC2CCCC(CNCc3ccc(C(F)(F)F)cc3)C2)cc1` (centres undefined), for which inhibition of growth (MIC) required 12.5 µM (≈ 5.73 µg/mL). `CCCCc1ccc(CNCC2CCCC(CNCc3ccc(CCCC)cc3)C2)cc1.Cl.Cl` (centres undefined) gave an MIC of 2.4 µM. Against the preceding compound, the MIC is about 5.2-fold lower.

On to `Brc1cccc(CNCC2CCCC(CNCc3cccc(Br)c3)C2)c1` (centres undefined), for which the MIC amounted to 12.7 µM (≈ 6.1 µg/mL).

In the case of `Cc1cccc(CNCC2CCCC(CNCc3cccc(C)c3)C2)c1` (centres undefined), the MIC was > 20 µM. On the same count and under the same terms, next, `CCCCCCCCc1ccc(CNCC2CCCC(CNCc3ccc(CCCCCCCC)cc3)C2)cc1` (centres undefined): 3.2 µM (≈ 1.75 µg/mL); `Cc1ccc(CNCC2CCCC(CNCc3ccc(C)c(C)c3)C2)cc1C` (centres undefined): > 20 µM; `c1cc(N2CCCC2)ccc1CNCC1CCCC(CNCc2ccc(N3CCCC3)cc2)C1` (centres undefined): 9.5 µM (≈ 4.38 µg/mL). For `CCCCCCCCc1ccccc1CNCC1CCCC(CNCc2ccccc2CCCCCCCC)C1` (centres undefined), the minimal inhibitory concentration (MIC) is 16.1 µM (≈ 8.81 µg/mL). `CCCCCc1ccc(CNCC2CCCC(CNCc3ccc(CCCCC)cc3)C2)cc1` (centres undefined) came in with an MIC of 6.7 µM (≈ 3.1 µg/mL). In turn, `Clc1ccc(CNCC2CCCC(CNCc3ccc(Cl)cc3Cl)C2)c(Cl)c1` (centres undefined) registered an MIC of 20 µM (≈ 9.21 µg/mL). This MIC lies about 3-fold higher than the previous one.

In turn, `CCCCCCc1ccccc1CNCC1CCCC(CNCc2ccccc2CCCCCC)C1` (centres undefined) gave an MIC of 8.8 µM (≈ 4.32 µg/mL). Still for that read-out and setting: then `CCc1ccc(CNCC2CCCC(CNCc3ccc(CC)cc3)C2)cc1` (centres undefined), with 15.7 µM (≈ 5.94 µg/mL). The same measure, in the same setting: then `CCCCCc1ccccc1CNCC1CCCC(CNCc2ccccc2CCCCC)C1` (centres undefined), with 8.7 µM (≈ 4.03 µg/mL); and `CC[C@@H](CO)NCCN[C@@H](CC)CO` [ETHAMBUTOL], with 2 µM (≈ 0.409 µg/mL); and `Brc1ccccc1CNCC1CCCC(CNCc2ccccc2Br)C1` (centres undefined), with > 20 µM.
